In one series the test system is HK cells, transporter 32. Further details: method as in PMID 34173696. The following applies: transporter 32 0.5 or 1 μM, pre-incubation (P), cited from earlier work.
Series [1] can be described thus: Decarboxylation/stability of cyclic carbonate 11 in deuterated buffer. The conditions noted are these: for t50 (decarboxylation of 11 to 12): deuterated buffer/DMSO-d6 95:5, rt. It is filed as physicochemical. The method, then: Figure 3 (A) Comparison of ring-opening rate constants (k^O) for the exchange reactions of 2, 3, and 11–18 with 10 (Table 1); (a) deuterated buffer/DMSO-d6 95:5, rt, t50 = <15 min, 84 min, 18 h, and ≫24 h at pD 7.9, 6.7, 5.4, and 4.7, respectively. (B) Dynamic covalent ring opening of CTO 3 and thiol 10 to give product 9. (C) Original kinetic data for the equilibration of 3 with 10 at pD 2.7 in deuterated phosphate buffer/DMSO-d6 9:1. Gold triangles: 3; purple circles: 9; filled diamonds: 10; empty diamonds: homo-disulfide of 10. (D) Dependence of K (filled circles) and rate constants (relative, k at 90% D2O as 1, k^O filled diamonds, k^C empty diamonds) for 3 with 10 at pD 2.7 (estimate) on solvent polarity. (E–G) Fluoride complexes of 1,2-dithiane 1,1-dioxide (E), 1,2-dithiane 1-oxide (F), and 1,2-dithiane (G), calculated with M06-2X/6-311++G** (green: F^–, yellow: S, red: O, gray: C, white: H). (H, I) Chloride complexes of 3 (H) and 1 (I, green: Cl^–, in parentheses: bond length for F^–). (J) Fragmentation of 11 with 10; (b) 10, DMSO-d6, rt.
The strained cyclic carbonate 11 was considered to accelerate CTO opening and further stabilize the opened form (entry 12). However, at pD 7.9, carbonate 11 decarboxylated within 15 min to CTO alkene 12. This degradation decelerated with decreasing pD to afford stable carbonate 11 for at least 1 day at pD 4.7 (Figure 3A). Ring opening of 11 was too fast even at pD 2.7, it proceeded to near completion with a >100× higher rate than 3. Decarboxylated alkene 12 reacted also very fast, the apparently lower rate is the consequence of more favorable ring closure back to 12 due to preorganization by the cis alkene (entry 13). The alternative Michael addition of thiol 10 to alkene 12 was not observed (Figure S12).

Converted amounts (≈) assume the structure as drawn.

Consider `O=S1(=O)C[C@H](O)[C@H](O)CS1` (stereo in doubt) [Compound 3, (4S,5R)-4,5-dihydroxy-1,2-dithiane-1,1-dioxide], for which, in the series on HK cells, transporter 32 (read-out: IC50 (concentration needed to reach 50% inhibition)), the IC50 was 550 µM. Also, the “MIC (concentration needed to reach 15% inhibition)” value in the series with HK cells, transporter 32 is 250 µM (≈ 46.1 µg/mL).
Turning to `O=C1O[C@H]2CSS(=O)(=O)C[C@H]2O1` [Compound 11], the “t50 (decarboxylation of 11 to 12)” value in series [1] (pD 4.7) is over 24 h; in series [1] (pD 5.4), 18 h; in series [1] (pD 6.7), 1.4 h; in series [1] (pD 7.9), under 0.25 h. For the same compound, the time stable entry in series [1] (pD 4.7) is “at least 1 day”. Further, the “time of decarboxylation to CTO alkene 12” value in series [1] (pD 7.9) is on record as at most 15 min.

The values are drawn from paper PMC9088311, “Cyclic Thiosulfonates for Thiol-Mediated Uptake: Cascade Exchangers, Transporters, Inhibitors” (JACS Au, 2022).
